Assay results: ChEMBL document CHEMBL1201862, “PubChem BioAssay data set” (2004)
Calls of active or inactive are those of the source.

How the values were obtained:
[1] = test system: HeLa; assay: Cytotoxicity counterscreen assay for transcriptional activators of heat shock protein 70 (Hsp70). [Related pubchem assays: 1203, 1252 ]; assay type: functional; details: Homo sapiens;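 also: cells exposed to compound for 16 hours before readout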
[2] = target: T1, Mannose-6-phosphate isomerase (Homo sapiens, UniProt P34949); assay: MPI inhibition at elevated mannose 6-phosphate – biochemical, fluorescence intensity, high mannose 6-phosphate, primary screen (AID 1220)
T1 sequence (P34949 whole entry): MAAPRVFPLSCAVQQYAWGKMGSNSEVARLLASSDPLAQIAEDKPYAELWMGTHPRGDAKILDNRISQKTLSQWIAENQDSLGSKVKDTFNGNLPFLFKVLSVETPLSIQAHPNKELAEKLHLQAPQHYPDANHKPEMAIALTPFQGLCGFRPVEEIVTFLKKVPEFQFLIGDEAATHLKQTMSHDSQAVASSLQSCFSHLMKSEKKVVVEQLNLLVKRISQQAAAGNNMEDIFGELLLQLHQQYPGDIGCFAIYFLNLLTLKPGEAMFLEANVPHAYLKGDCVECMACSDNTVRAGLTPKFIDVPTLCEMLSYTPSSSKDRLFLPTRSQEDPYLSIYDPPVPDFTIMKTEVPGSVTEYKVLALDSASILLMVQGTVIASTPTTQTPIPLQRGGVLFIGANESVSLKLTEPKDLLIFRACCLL

[3] = target: Peroxisome proliferator-activated receptor gamma/Nuclear receptor coactivator 2 (Homo sapiens, UniProt P37231); assay: (§1) TR-FRET dose response biochemical High Throughput Screening assay for agonists of the steroid receptor coactivator 2 (SRC-2) recruitment by the peroxisome proliferator-activated receptor gamma (PPAR gamma): non-selective agonists. [Related pubchem assays: 1297, 1032 ]; assay type: functional
[4] = target: Peroxisome proliferator-activated receptor gamma/Nuclear receptor coactivator 1 (Homo sapiens, UniProt P37231); assay: as §1, with “1 (SRC-1)” for “2 (SRC-2)”, “assays (depositor defined):AID1300, AID1808, AID504735, AID631]” for “assays: 1297, 1032 ]”; assay type: protein assay
Sequence of Peroxisome proliferator-activated receptor gamma/Nuclear receptor coactivator 1 (P37231 whole entry): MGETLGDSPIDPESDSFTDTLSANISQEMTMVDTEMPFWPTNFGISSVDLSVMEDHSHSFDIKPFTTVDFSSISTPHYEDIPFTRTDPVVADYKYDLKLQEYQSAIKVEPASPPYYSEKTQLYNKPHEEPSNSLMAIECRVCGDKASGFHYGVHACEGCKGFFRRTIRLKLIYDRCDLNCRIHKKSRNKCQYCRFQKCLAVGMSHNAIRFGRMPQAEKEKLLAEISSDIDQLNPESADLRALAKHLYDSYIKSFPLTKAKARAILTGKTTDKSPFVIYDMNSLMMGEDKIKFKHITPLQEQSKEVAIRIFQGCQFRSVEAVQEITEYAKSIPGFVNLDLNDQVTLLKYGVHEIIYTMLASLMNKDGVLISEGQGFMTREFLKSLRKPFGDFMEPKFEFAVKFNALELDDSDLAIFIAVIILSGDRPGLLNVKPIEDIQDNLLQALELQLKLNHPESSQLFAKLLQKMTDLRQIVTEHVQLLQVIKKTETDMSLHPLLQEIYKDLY
Sequence of Peroxisome proliferator-activated receptor gamma/Nuclear receptor coactivator 1 (Q15788 whole entry, further chain): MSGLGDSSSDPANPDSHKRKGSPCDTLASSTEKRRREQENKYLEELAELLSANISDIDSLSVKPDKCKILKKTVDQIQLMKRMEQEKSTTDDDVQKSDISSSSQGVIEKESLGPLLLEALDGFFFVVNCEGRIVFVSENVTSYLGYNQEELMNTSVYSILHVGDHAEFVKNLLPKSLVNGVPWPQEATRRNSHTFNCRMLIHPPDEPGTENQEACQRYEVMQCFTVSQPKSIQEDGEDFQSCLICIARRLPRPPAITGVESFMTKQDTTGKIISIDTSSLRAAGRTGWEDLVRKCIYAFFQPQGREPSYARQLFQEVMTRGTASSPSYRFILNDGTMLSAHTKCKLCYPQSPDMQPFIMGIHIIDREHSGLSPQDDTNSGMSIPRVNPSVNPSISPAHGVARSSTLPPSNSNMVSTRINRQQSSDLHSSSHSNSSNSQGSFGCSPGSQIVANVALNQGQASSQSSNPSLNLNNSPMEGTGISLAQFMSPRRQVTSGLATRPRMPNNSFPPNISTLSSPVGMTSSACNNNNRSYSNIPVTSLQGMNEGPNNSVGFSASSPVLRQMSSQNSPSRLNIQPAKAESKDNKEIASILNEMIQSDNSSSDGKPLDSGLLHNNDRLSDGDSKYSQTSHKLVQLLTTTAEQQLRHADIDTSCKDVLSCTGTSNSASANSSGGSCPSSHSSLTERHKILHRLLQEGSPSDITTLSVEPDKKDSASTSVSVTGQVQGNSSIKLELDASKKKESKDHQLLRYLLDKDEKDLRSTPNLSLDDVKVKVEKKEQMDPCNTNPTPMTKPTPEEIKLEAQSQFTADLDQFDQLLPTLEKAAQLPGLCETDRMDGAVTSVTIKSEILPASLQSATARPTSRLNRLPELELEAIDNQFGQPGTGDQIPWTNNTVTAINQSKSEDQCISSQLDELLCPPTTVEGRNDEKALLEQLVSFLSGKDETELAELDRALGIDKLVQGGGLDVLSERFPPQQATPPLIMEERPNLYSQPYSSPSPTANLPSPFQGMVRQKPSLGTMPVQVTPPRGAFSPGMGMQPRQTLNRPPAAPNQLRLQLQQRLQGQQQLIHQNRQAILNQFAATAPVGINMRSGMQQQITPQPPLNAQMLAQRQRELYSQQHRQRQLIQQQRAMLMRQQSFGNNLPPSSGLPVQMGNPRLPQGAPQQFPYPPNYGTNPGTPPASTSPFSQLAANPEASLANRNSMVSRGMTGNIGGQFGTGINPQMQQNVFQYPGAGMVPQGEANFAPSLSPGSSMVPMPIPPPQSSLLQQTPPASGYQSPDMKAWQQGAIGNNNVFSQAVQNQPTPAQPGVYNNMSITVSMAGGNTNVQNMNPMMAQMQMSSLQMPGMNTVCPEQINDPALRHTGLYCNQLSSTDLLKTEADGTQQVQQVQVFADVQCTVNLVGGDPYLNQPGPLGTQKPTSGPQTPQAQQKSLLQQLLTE

[5] = target: Peroxisome proliferator-activated receptor gamma/Nuclear receptor coactivator 3 (Homo sapiens, UniProt P37231); assay: as §1, with “3 (SRC-3)” for “2 (SRC-2)”, “1301 (Confirmation screen.), 1048 (Primary screen.)]” for “1297, 1032 ]”; assay type: functional
Sequence of Peroxisome proliferator-activated receptor gamma/Nuclear receptor coactivator 3 (P37231 whole entry): as the sequence (P37231 whole entry) above
Sequence of Peroxisome proliferator-activated receptor gamma/Nuclear receptor coactivator 3 (Q9Y6Q9 whole entry, further chain): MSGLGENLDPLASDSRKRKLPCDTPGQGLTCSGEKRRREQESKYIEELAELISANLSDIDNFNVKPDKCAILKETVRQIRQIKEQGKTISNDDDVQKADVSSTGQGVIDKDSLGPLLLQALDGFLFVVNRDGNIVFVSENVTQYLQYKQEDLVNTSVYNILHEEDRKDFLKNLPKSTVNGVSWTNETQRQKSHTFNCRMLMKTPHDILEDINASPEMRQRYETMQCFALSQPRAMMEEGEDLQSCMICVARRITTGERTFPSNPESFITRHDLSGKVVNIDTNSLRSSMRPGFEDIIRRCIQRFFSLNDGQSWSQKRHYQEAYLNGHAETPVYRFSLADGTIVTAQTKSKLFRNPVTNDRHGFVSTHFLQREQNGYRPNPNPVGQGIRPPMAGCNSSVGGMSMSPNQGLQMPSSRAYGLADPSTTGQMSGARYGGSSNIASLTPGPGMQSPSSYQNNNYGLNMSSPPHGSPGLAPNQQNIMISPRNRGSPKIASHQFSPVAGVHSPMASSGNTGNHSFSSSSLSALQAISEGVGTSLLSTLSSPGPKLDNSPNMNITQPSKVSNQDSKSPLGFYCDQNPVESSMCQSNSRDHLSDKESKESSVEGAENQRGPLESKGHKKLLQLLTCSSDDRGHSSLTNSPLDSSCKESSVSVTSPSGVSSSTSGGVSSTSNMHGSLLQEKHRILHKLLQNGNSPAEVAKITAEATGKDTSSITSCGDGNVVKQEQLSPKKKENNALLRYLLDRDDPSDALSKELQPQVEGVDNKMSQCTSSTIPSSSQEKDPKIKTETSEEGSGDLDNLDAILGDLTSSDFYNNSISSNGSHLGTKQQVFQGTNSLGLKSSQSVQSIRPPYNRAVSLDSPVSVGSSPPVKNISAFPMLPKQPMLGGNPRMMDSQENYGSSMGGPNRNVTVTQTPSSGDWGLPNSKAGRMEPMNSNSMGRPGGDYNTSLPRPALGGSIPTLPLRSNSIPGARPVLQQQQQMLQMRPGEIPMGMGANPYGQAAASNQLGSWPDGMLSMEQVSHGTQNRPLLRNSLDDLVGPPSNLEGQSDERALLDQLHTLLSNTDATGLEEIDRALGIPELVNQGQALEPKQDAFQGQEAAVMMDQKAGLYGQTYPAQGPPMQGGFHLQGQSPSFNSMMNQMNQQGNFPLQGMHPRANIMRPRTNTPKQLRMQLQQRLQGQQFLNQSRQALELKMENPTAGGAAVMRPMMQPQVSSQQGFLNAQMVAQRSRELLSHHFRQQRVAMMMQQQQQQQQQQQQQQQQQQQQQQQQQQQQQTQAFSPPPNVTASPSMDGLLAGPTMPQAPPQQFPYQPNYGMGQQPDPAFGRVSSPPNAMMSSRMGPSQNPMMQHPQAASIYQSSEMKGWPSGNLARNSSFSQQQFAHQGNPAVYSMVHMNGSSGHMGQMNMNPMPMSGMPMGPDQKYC

[6] = target: Glucose-6-phosphate 1-dehydrogenase (Homo sapiens, UniProt P11413); assay: inhibition of Homo sapiens G6PD, dose series – biochemical, fluorescence, selectivity assay for P. falciparum G6PD inhibitor project, dose response (AID 504792); assay type: functional
Sequence of Glucose-6-phosphate 1-dehydrogenase (P11413 whole entry): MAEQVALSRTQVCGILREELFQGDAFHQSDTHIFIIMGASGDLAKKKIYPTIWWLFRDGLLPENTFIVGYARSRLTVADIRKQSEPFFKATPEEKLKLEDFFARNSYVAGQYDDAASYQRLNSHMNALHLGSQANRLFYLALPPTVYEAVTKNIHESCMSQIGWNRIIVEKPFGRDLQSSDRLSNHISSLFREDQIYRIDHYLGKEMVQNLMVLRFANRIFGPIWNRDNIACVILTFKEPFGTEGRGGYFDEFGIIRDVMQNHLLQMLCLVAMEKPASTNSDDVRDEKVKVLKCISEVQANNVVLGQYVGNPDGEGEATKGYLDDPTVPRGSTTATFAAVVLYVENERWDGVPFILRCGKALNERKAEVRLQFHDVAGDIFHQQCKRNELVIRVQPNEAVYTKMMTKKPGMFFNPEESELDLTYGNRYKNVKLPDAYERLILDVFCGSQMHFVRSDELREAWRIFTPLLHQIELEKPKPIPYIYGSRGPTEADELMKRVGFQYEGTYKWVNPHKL

[7] = target: T1, Mannose-6-phosphate isomerase; assay: MPI enzyme activity inhibition – biochemical, fluorescence intensity, coupled assay, primary screen (AID 1209)
[8] = target: Potassium voltage-gated channel subfamily KQT member 2 (Rattus norvegicus, UniProt O88943, W236L); assay: potentiation of rat KCNQ2 current – cell-based, automated electrophysiology, mechanism study for KCNQ2 potentiator project, dose response (AID 2603); assay type: functional
[9] = reduction of Shn3 3'UTR-driven luciferase in osteoblasts – cell-based, Clone20 osteoblasts, firefly luciferase, cherry-picked, dose response (AID 624132); assay type: functional;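 also: firefly luciferase luminescence from reporter carrying the Shn3 3'UTR in osteoblasts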
[10] = target: T2, Protein RecA (Mycobacterium tuberculosis, UniProt P9WHJ3); assay: Fluorescence Cell-Free Homogeneous Dose Retest to Identify Inhibitors of RecA-Intein Splicing Activity. [Related pubchem assays (depositor defined):AID2097, AID2223, AID489010, AID492950]; assay type: functional
T2 sequence (P9WHJ3 whole entry): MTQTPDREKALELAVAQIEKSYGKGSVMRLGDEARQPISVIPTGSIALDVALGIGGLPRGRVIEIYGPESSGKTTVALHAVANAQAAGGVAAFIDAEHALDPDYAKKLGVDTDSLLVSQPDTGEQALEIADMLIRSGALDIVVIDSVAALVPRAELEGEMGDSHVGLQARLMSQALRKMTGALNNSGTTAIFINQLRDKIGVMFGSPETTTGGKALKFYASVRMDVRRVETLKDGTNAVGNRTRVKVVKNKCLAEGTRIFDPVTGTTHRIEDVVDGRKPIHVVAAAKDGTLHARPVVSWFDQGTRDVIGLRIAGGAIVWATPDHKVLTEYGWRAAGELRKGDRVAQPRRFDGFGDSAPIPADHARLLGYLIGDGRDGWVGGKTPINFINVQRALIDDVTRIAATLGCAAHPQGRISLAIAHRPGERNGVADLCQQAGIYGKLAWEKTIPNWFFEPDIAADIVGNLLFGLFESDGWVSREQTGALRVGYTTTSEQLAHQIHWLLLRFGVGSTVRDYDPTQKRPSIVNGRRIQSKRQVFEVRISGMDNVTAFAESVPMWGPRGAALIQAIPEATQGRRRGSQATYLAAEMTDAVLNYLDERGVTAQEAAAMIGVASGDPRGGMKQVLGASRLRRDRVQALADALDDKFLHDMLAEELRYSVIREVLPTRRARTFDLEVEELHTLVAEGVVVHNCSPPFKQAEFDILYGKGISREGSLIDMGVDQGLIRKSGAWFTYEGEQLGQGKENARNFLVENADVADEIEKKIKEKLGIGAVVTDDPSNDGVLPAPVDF

[11] = Shn3 3'UTR reporter signal decrease – cell-based, Clone20 osteoblasts, firefly luciferase, cherry-pick, set 2, Schnurri-3 inhibitor project, dose response (AID 720490); assay type: functional;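 also: actives lower the luminescence signal as inhibitors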
[12] = target: Genome polyprotein (dengue virus type 2, UniProt P29990); assay: flavivirus cap methylation enzyme inhibition – biochemical, confirmation dose response, primary screen (AID 588689); assay type: functional
[13] = target: T3, Replicative DNA helicase DnaB (Mycobacterium tuberculosis, UniProt P9WMR3); assay: DnaB intein splicing inhibitors, dose response, biochemical, cell-free fluorescence (AID 449749); assay type: functional
T3 sequence (P9WMR3 whole entry): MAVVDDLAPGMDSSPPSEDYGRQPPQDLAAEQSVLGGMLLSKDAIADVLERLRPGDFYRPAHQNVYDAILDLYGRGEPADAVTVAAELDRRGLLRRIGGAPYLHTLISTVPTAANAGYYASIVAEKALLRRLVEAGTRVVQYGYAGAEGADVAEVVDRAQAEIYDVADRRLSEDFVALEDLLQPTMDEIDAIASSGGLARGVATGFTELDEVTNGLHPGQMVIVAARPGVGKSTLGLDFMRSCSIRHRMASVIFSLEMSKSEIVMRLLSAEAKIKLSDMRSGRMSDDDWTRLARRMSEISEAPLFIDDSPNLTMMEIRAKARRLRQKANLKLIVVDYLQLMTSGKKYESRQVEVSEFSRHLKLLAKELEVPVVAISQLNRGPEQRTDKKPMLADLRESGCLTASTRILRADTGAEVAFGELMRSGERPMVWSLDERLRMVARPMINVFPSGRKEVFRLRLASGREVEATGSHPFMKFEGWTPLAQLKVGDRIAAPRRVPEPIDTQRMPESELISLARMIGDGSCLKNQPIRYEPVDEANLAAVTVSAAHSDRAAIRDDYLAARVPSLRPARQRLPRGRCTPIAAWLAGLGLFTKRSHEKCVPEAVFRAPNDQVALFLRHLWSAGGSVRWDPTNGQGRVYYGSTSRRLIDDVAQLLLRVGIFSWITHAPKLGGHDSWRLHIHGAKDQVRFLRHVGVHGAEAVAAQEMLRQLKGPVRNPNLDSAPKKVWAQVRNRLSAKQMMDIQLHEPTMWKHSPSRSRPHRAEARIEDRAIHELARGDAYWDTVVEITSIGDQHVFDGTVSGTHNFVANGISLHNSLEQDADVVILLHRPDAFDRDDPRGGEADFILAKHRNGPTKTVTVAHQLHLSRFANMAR

[14] = target: Hepatocyte nuclear factor 4-alpha (Homo sapiens, UniProt P41235); assay type: functional, cell-based;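 also: biochemical luminescence-based dose-response counterscreen measuring inhibition of HNF4 dimerization, run alongside a screen for blockers of ABHD5–perilipin-5 interaction; split luciferase complementation of HNF4 fusion proteins in cell lysate measuring dimerization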
[15] = target: 5-hydroxytryptamine receptor 1E (Homo sapiens, UniProt P28566); assay: Counterscreen assay for S1P3 antagonists: Dose response cell-based high throughput screening assay to identify antagonists of the 5-Hydroxytryptamine Receptor Subtype 1E (5HT1E). [Related pubchem assays: 1429, 485 ]; assay type: functional
Sequence of 5-hydroxytryptamine receptor 1E (P28566 whole entry): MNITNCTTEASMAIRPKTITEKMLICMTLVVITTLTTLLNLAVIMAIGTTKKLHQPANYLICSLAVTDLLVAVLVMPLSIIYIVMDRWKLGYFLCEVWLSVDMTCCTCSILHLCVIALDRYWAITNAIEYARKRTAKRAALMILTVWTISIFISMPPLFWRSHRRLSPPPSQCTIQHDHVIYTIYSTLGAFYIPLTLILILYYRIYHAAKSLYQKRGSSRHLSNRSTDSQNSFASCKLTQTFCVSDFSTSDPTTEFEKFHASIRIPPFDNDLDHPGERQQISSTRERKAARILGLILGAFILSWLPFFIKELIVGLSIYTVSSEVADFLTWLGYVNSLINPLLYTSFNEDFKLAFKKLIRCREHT

[16] = target: Sphingosine 1-phosphate receptor 3 (Homo sapiens, UniProt Q99500); assay: Dose response cell-based high throughput screening assay for antagonists of the Sphingosine 1-Phosphate Receptor 3 (S1P3). [Related pubchem assays: 1429, 485 ]; assay type: functional
[17] = CCR5-tropic HIV-1 fusion blockers – cell-based, CCR5-tropic Env, dose response (AID 2279); assay type: functional

CC(CC1CC(C)(C)OC1=O)C(=O)Nc1ccc([N+](=O)[O-])cc1 (configuration not stated)
CC50 [1]: > 99 µM (not active)

Cc1cccc(-n2c(=S)[nH]c3sc4c(c3c2=O)CCc2ccccc2-4)c1
IC50 [2]: > 50 µM (not active) | EC50 [3]: > 79.4 µM (not active) | EC50 [4]: > 79.4 µM (inactive) | EC50 [5]: > 79.4 µM (not active) | IC50 [6]: > 80 µM (inactive) | IC50 [7]: 36.3 µM (active)

CCSc1nnc(NC(=O)c2nc(S(=O)(=O)Cc3ccc(F)cc3)ncc2Cl)s1
EC50 [8]: 38.9 µM (active) | AC50 [9]: 4.96 µM (active) | EC50 [10]: 1.08 µM (inconclusive) | AC50 [11]: 1.68 µM (active) | IC50 [12]: 41.5 µM (active) | AC50 [13]: 419 nM (inconclusive) | IC50 [14]: 5.51 µM (active)

Cc1ccc(NC(=O)C(c2ccccc2)C2CCCC2)cc1 (configuration not stated)
IC50 [15]: 7.06 µM (active) | IC50 [16]: 2.43 µM (active)

COc1ccc(S(=O)(=O)Nc2ccccc2C(=O)Nc2nc(-c3ccc(F)cc3)cs2)cc1OC
IC50 [17]: 4.41 µM (active)
